Reference: ChEMBL document CHEMBL5137082, “Discovery of a Novel Vascular Disrupting Agent Inhibiting Tubulin Polymerization and HDACs with Potent Antitumor Effects” (J Med Chem, 2022)
pIC50: −log10 of the molar value. Active and inactive are the calls of the source. No cut-off for these calls is given here.

How the values were obtained:
[1] = tested on: K562; assay: cells; assay type: functional, cell-based; conditions: Homo sapiens, K562, 72 h
Description: Antiproliferative activity against human K562 cells assessed as inhibition of cell growth measured after 72 hrs by MTT assay

[2] = molecular target: Histone deacetylase 1 (Homo sapiens, UniProt Q13547); assay: Inhibition of HDAC1 in human HeLa cells using BOC-K(Ac)-AMC as substrate measured after 30 mins by fluorescence based microtiter plate reader assay; assay type: cell-based
[3] = molecular target: T1, Protein deacetylase HDAC6 (Homo sapiens, UniProt Q9UBN7); assay: Inhibition of HDAC6 in human HeLa cells using BOC-K(Ac)-AMC as substrate measured after 30 mins by fluorescence based microtiter plate reader assay; assay type: cell-based
T1 sequence (Q9UBN7 whole entry): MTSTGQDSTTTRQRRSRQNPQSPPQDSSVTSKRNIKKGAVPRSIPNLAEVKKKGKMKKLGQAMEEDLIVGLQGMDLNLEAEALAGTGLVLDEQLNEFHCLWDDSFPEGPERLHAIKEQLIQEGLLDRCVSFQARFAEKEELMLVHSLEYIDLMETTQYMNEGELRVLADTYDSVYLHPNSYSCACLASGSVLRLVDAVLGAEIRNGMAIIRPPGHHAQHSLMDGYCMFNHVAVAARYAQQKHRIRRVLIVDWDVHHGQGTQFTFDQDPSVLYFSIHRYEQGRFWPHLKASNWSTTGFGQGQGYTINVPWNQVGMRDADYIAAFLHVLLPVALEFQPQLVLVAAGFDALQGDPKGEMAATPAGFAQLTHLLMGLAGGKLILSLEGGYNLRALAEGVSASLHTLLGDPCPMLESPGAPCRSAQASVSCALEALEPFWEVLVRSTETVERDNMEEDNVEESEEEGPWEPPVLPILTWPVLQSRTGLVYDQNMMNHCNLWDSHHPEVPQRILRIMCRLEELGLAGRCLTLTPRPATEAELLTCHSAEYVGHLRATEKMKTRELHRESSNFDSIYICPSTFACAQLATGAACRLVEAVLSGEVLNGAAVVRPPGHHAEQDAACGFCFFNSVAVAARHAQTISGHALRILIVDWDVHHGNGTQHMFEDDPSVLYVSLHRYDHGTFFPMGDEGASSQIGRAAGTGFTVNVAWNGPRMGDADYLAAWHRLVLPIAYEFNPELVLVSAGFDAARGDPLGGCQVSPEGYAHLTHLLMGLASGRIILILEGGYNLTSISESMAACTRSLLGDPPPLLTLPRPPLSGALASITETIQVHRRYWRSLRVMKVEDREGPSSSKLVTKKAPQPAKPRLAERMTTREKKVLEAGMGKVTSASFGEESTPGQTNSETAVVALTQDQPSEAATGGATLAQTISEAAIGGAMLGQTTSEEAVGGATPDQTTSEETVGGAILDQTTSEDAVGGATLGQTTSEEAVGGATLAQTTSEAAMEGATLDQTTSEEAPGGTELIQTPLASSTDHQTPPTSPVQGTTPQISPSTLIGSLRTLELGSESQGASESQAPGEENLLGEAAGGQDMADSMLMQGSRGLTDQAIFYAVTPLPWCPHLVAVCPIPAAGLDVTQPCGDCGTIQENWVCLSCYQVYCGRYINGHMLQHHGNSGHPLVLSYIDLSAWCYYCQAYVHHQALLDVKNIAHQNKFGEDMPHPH

[4] = molecular target: T2, Tubulin (Homo sapiens) (UniProt P68371+Q9H4B7+P0DPH7+P68366+Q13509+Q71U36+P04350+Q3ZCM7+P07437+P68363+Q9BQE3+Q6PEY2+Q13885+Q9BVA1+Q9BUF5); assay: Inhibition of [3H]Colchicine binding to tubulin (unknown origin) at 1 uM measured after 2 hrs by scintillation counting method relative to control; assay type: protein-complex assay
[5] = molecular target: Histone deacetylase 2 (Homo sapiens, UniProt Q92769); assay: Inhibition of HDAC2 in human HepG2 cells assessed as increase in level of acetyl histone H3substrate incubated for 24 hrs by chemiluminescence based Western blotting analysis; assay type: cell-based; conditions: dose 0.03-0.3 µM
[6] = molecular target: Histone deacetylase 3 (Homo sapiens, UniProt O15379); assay: Inhibition of HDAC3 in human HepG2 cells assessed as increase in level of acetyl histone H3substrate incubated for 24 hrs by chemiluminescence based Western blotting analysis; assay type: cell-based; conditions: dose 0.03-0.3 µM
[7] = molecular target: T2, Tubulin (Homo sapiens); assay: Disruption of microtubule network in human HepG2 cells at 7.5 to 30 nM measured after 2 hrs by DAPI staining based immunofluorescence microscopic assay; assay type: cell-based; conditions: dose 7.5-30 nM
[8] = tested on: HepG2; assay: Induction of cell cycle arrest in human HepG2 cells assessed as accumulation G1 phase at 15 nM incubated for 48 hrs by propidium iodide staining based flow cytometry analysis (reference value: 59.32 +/- 0.77%); assay type: functional
[9] = tested on: HepG2; assay: Induction of cell cycle arrest in human HepG2 cells assessed as accumulation G1 phase at 30 nM incubated for 48 hrs by propidium iodide staining based flow cytometry analysis (reference value: 59.32 +/- 0.77%); assay type: functional
[10] = tested on: HepG2; assay: Induction of G2/M phase cell cycle arrest in human HepG2 cells assessed as decrease in Cdc25c protein expression at 7.5 to 30 nM measured after 24 hrs by western blot analysis; assay type: functional, cell-based; conditions: dose 7.5-30 nM
[11] = tested on: HepG2; assay: Induction of G2/M phase cell cycle arrest in human HepG2 cells assessed as decrease in cyclin B1 protein expression at 7.5 to 30 nM measured after 24 hrs by western blot analysis; assay type: functional, cell-based; conditions: dose 7.5-30 nM
[12] = tested on: HepG2; assay: Induction of apoptosis in human HepG2 cells assessed as necrotic cells at 30 nM incubated for 48 hrs by Annexin-V/PI-staining based flow cytometry (reference value: 1.43 +/- 0.26%); assay type: functional
[13] = tested on: HepG2; assay: Induction of apoptosis in human HepG2 cells assessed as viable cells at 30 nM incubated for 48 hrs by Annexin-V/PI-staining based flow cytometry (reference value: 91.44 +/- 0.74%); assay type: functional; conditions: read-out: Activity
[14] = tested on: HepG2; assay: Induction of apoptosis in human HepG2 cells assessed as downregulation of Bcl-2 protein expression measured after 24 hrs by Western blot analysis; assay type: functional, cell-based; conditions: dose 7.5-30 nM, DDE = dose-dependent effect
[15] = tested on: HepG2; assay: Induction of ROS generation in human HepG2 cells assessed as increase in ROS level at 30 nM incubated for 48 hrs by DCF-DA staining-based flow cytometry analysis (reference value: 3.73%); assay type: functional
[16] = Metabolic stability in mouse plasma assessed as half life at 40 uM measured upto 5 hrs by LC-MS/MS analysis; assay type: ADME, cell-free
[17] = Metabolic stability in mouse plasma assessed as compound remaining at 40 uM measured after 1 hrs by LC-MS/MS analysis (reference value: 100%); assay type: ADME, cell-free
[18] = Metabolic stability in mouse liver microsomes assessed as half life at 1 uM in presence of NADPH measured up to 60 mins by LC-MS/MS analysis; assay type: ADME, Microsome
[19] = Metabolic stability in mouse assessed as intrinsic clearance; assay type: ADME; conditions: 1 h, 1 µM, time < 60 min
[20] = Toxicity in ICR mouse allografted with mouse H22 cells assessed as pathological changes in heart at 20 mg/kg, iv administered qd measured after 21 days by H and E staining based analysis; assay type: organism-based; conditions: in vivo, 504 h, time 21 day
[21] = Toxicity in ICR mouse allografted with mouse H22 cells assessed as pathological changes in liver at 20 mg/kg, iv administered qd measured after 21 days by H and E staining based analysis; assay type: organism-based; conditions: in vivo, 504 h, time 21 day

Sequence of Histone deacetylase 3 (O15379 whole entry): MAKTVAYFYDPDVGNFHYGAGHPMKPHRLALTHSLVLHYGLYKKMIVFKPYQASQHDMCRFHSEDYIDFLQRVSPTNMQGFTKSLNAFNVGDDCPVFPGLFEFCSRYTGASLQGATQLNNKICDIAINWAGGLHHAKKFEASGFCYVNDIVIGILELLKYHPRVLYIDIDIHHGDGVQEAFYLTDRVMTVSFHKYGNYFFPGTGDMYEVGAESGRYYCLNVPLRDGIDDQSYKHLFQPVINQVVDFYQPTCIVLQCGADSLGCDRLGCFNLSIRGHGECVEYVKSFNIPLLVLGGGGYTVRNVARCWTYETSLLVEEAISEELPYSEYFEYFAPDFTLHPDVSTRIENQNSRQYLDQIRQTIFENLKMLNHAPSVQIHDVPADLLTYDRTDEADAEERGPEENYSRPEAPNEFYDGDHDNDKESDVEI
Sequence of Histone deacetylase 1 (Q13547 whole entry): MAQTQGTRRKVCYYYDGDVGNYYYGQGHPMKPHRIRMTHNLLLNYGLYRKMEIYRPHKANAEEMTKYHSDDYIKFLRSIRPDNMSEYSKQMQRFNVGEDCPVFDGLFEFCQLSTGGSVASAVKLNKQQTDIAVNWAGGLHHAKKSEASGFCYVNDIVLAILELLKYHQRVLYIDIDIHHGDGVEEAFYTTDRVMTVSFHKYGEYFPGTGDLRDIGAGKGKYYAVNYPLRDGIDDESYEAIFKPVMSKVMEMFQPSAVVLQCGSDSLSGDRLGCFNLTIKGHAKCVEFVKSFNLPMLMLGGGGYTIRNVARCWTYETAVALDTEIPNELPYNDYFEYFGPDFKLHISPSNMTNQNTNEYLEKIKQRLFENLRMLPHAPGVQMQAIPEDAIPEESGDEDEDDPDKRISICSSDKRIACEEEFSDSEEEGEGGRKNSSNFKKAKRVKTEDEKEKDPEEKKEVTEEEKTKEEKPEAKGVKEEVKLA
Sequence of Histone deacetylase 2 (Q92769 whole entry): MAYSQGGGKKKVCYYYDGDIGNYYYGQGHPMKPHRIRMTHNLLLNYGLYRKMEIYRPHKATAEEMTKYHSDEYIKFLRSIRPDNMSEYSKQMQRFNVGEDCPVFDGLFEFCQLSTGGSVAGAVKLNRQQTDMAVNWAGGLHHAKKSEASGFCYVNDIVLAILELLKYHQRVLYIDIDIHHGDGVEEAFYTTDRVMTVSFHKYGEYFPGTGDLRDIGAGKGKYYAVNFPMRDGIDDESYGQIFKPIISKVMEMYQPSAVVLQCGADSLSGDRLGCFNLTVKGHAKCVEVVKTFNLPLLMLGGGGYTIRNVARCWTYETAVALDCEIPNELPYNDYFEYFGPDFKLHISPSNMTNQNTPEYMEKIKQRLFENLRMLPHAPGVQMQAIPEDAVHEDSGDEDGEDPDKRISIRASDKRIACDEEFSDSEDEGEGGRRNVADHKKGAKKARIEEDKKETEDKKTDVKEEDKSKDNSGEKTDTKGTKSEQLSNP

pIC50 [1]: 7.74 | pIC50 [2]: 6.94 | pIC50 [3]: 6.86 | inhibition [4]: 52.3% | inhibition [5]: Active | inhibition [6]: Active | Activity [7]: Active | half-life at 40 µM [16]: 2.1 h | Stability [17]: 45.6% | half-life at 1 µM [18]: 0.838 h | CL [19]: 2.82 mL/min
SMILES: COc1ccc(CNC(=O)c2cc(F)ccc2N2CCOCC2)cc1/C=C/C(=O)NO
Activity [8]: 49.96% | Activity [9]: 43.33% | Activity [10]: Active | Activity [11]: Active | Activity [12]: 2.85% | viability at 0.03 µM [13]: 46.6% | Activity [14]: Dde | Activity [15]: 46.69% | Activity [20]: Non-Toxic | Activity [21]: Non-Toxic
